According to patent publication US6586460B1, “Heteroarotinoids containing urea or thiourea linker” (The Board of Regents for Oklahoma State University, priority 2001, dated 2003):
Each block holds one compound with its values, some of them ahead of it.

Experiments:
[1] = system: ovarian carcinoma cell line OVCAR-3; assay: Apoptosis in organotypic culture, TUNNEL assay; assay type: cell-based, human; settings: 1 μM, two weeks, organotypic culture, TUNNEL assay
Protocol: In another experiment, the ovarian carcinoma cell line OVCAR-3 was grown in organotypic culture. After one week, the cultures were treated with 1 μM solution of heteroarotinoids 11, 12, and 13, or with the same volume of DMSO (solvent), for two weeks. Both 9-c-RA and 4-HPR were used as controls. At the end of the time, the cultures were fixed in sectioned, and stained with the TUNNEL assay to detect apoptosing cells. An experienced pathologist quantitated the percent of apoptosing cells by light microscopic examination.

CAOV-3 = assay: Growth inhibition assay (SRB); assay type: cell-based
Source text: (§1) To illustrate the general and useful biological activity of the heteroarotinoids described in this invention, selected compounds were screened for ability to inhibit the growth of three ovarian cancerous cell lines, namely Caov, SKOV, and OVCAR cell lines, three cervical cell lines (Cervix HPV-Wt p53, Cervix HPV-Mut p53, and Cervix HPV-Mut p53), and one vulvar (Vulvar HPV-Mut p53) cell line as shown in Tables I-III. The cell lines and the technology have been previously described [See Journal of Medicinal Chemistry, 1999, Vol. 42, pages 3602-3614 in an article entitled “Synthesis, Structure-Activity Relationships, and RAR γ-Ligand Interactions of Nitrogen Heteroarotinoids” by A. Dhar, S. Liu, J. Klucik, K. D. Berlin, M. M. Madler, S. Lu, R. T. Ivey, D. Zacheis, C. W. Brown, E. C. Nelson, P. J. Birckbichler, and D. M. Benbrook], but the general technique was slightly modified. Cultures of the cancerous cells were plated in volumes of 150 μL in 96-well microtiter plates at concentrations of 2000-4000 cells/well, depending upon the cell line used. Retinoids were added the next day at 4× the concentrations in 50 μL of media resulting in 1, 2, 3, 4, 5, 7, and 10 μM final concentrations of each retinoid. Control cultures were treated with the same volume of DMSO. After 3 days of treatment, the cell density in each well was determined by fixing the cells in trichloroacetic acid followed by staining the cytoplasmic proteins with sulforhoamine B (SRB). After rinsing, the SRB was solubilized in Tris-HCl, and the optical density of each culture was determined with a MR600 microtiter plate reader. Each experiment was performed in triplicate, and the three values of each treatment were averaged. The average OD of the treated cultures was divided by that of the control cultures treated with solvent alone. To determine the percent growth inhibition, this ratio was subtracted from 1 and multiplied by 100. Tables I, II, and III contain representative examples of the inhibition of growth by the inventive heteroarotinoids of the cancerous cell lines investigated at two independent concentrations (1 and 10 μM). As standards for comparison purposes, trans-retinoic acid (t-RA), 9-cis-retinoic acid (9-c-RA), 13-cis-retinoic acid (13-c-RA), and […] (4-HPR) were added in parallel experiments along with the heteroarotinoids and with dimethyl sulfoxide (DMSO) as the solvent. For convenience, the data in Tables II and III are duplicated and ranked according to tumor type.

HT-3 = assay: Growth inhibition assay (SRB); assay type: cell-based; settings: 10 μM, three-day treatment, Table I
Source text: as §1

C-33A = assay: Growth inhibition assay (SRB); assay type: cell-based; settings: 10 μM, three-day treatment, Table I
Source text: as §1

SiHa = assay: Growth inhibition assay (SRB); assay type: cell-based; settings: 10 μM, three-day treatment, Table I
Source text: as §1

SW962 = assay: Growth inhibition assay (SRB); assay type: cell-based; settings: 10 μM, three-day treatment, Table I
Source text: as §1

SK-OV-3 = assay: Growth inhibition assay (SRB); assay type: cell-based
Source text: as §1

OVCAR-3 = assay: Growth inhibition assay (SRB); assay type: cell-based, human
Source text: as §1

[2] = system: SW962 vulvar carcinoma cultures; assay: Apoptosis assay, Annexin-V-Flous/propidium iodide flow cytometry; assay type: cell-based
Source text: Optimal chemotherapeutic agents will selectively kill tumor cells by inducing a natural form of cell death which is called “apoptosis”. Toxic agents kill both normal and tumor cells via a nonspecific process known as “necrosis”. To differentiate between apoptosis and necrosis in heteroarotinoid-treated cultures, a flow cytometric assay was employed. Treated cultures were stained with Annexin-V-Flous and propidium iodide, and the intensities of the stains are quantitated with Flow Cytometry. The Annexin-V-Flous binds to phosphatidyl serine on the exterior of apoptosing cells. This assay is specific for apoptosing cells because phosphatidyl serine is normally located on the inner membrane of the cells, a situation whereby the serine derivative cannot be bound by Annexin. However, during apoptosis, phosphatidyl serine is translocated to the outer membrane. The Flous moiety emits a signal that can be detected and quantitated by Flow Cytometry. In contrast, propidium iodide is taken up by necrotic cells that have lost membrane integrity. In this study, t-RA was used as a control for the non-apoptotic retinoids, and 4-HPR was used as a control for the apoptotic retinoids.

[3] = Liver toxicity (plasma ALT activity, liver sections); assay type: in vivo; settings: 10 mg/kg/day p.o.
Source text: Toxic compounds can induce livers to release enzymes called serum transaminases, such as alanine aminotransferase (ALT). The assay for ALT is the most universally accepted clinical laboratory marker used to evaluate hepatic toxicity induced by pharmaceuticals [See “Serum Transferase Elevations as Indicators or Hepatic Injury Following the Administration of Drugs”, Reg. Tox. Pharm., volume 27, 1998, pp 119-130, by D. E. Amacher]. At the end of the treatment period, blood was drawn from each animal. Plasma was separated by centrifugation and stored at −70° C. The activity of ALT was determined in aliquots of plasma by standard spectrophotometric enzymatic techniques which were based upon the reduction of pyruvate by lactate dehydrogenase [See “Aged Mice are Resistant to the Hepatotoxic Effects of Endotoxin and Galactosamine” in Exp. Mol. Pathology, volume 59, 1993, pp 27-37]. The method measures the disappearance of NADH from time of incubation at 37° C. The activities have been expressed in μm/Liter/min (Table VI). Two different amounts of plasma were utilized in each assay to assure the measurement of the maximum rate.
There were no statistically significant differences between the ALT activities in the different treatment groups (Table VI, t-test: P>0.05). All numbers were in the normal range (63 to 307 μm/Liter/Min) of ALT values for the species of mouse utilized. All liver sections were assessed by an experienced pathologist in a blinded manner. The degree of necrosis was very mild in all animals.

[4] = system: OVCAR-3 cisplatin-resistant ovarian carcinoma cell line; assay: Cisplatin chemosensitization (MTS assay); assay type: cell-based, human; settings: for chemosensitization to cisplatin (percent growth, FIG. 2): 1 μM retinoid 3 days before and 3 days after one hour of cisplatin (40 μM or 1 μg/ml)
Protocol: The compounds of the present invention also find advantage over the standard retinoids, including retinoic acid and 4-HPR as chemosensitization agents. In another study, ovarian carcinoma cultures, including cisplatin-resistant cultures, were trypsinized and plated in microtiter plates at a concentration of 1000 cells per well. A series of natural and synthetic retinoids, including exemplar heteroarotinoids with the novel three atom linker, at a concentration of 5 μM were added to triplicate wells in the microtiter plates twenty-four hours later. The same volume of DMSO used to administer the compounds were added to the control cultures. After three days of treatment, a range of cisplatin concentrations were added to the wells. After one hours of exposure, the media and retinoid drugs were replenished. Cell survival was quantitated using the MTS assay (Promega). […] Thus, the present invention contemplates the process of sensitizing cells to cisplatin therapy and combined cisplatin and radiation therapy using the inventive heteroarotinoids.
In this regard, the cisplatin resistant OVCAR-3 cell line was pre-treated with a concentration of 1 μM of the indicated retinoids for 3 days, and then exposed to cisplatin at the concentration detected in tumors of treated patients (40 μM or 1 μg/ml). […] After one hour of cisplatin exposure, the cisplatin was removed and the cultures were grown in the presence of 1 μM of the indicated retinoids for an additional 3 days. The number of living cells present was then determined using the MTS (3-(4,5-dimethylthiazol-2-yl)-5-(3-carboxymethoxyphenyl)-2H-tetrazolium inner salt) assay (Promega). In the MTS assay, metabolically active cells reduce the MTS compound to an aqueous soluble formazan resulting in an absorbance that can be measured at 490 nm (Promega Technical Bulletin No.169). The optical density at 490 nm (OD490) of the MTS-treated cultures is then determined and used as a measure of the number of living cells in each well. The percent growth is determined by dividing the OD490 of the treated cultures by the OD490 of the untreated control cultures.

[5] = 10 μM, three-day treatment, Table I
[6] = 1 μM, 3 days of treatment, Table II
[7] = 10 μM, 3 days of treatment, Table III

Compound: 9-cis-retinoic acid [9-c-RA, reference compound]
% APOPTOSIS of OVCAR-3 cells [1]: 80%
Percentage growth inhibition, CAOV-3 (Ovarian HPV− Mut p53) (CAOV-3; [5]): 27%
Percentage growth inhibition, HT-3 (Cervix HPV− Mut p53) (HT-3): 47%
Percentage growth inhibition, C-33A (Cervix HPV− Mut p53) (C-33A): 44%
Percentage growth inhibition, SiHa (Cervix HPV+ Wt p53) (SiHa): 24%
Percentage growth inhibition, SW962 (Vulva HPV− Mut p53) (SW962): 31%
Percentage of growth inhibition, SKOV−3 (SK-OV-3; [6]): 23.0%
Percentage of growth inhibition, SKOV−3 (SK-OV-3; [7]): 16.0%
Percentage growth inhibition, SK-OV-3 (Ovarian HPV− Null p53) (SK-OV-3; [5]): 30%
Percentage of growth inhibition, OVCAR−3 (OVCAR-3; [6]): 6.2%
Percentage of growth inhibition, OVCAR−3 (OVCAR-3; [7]): 5.3%
Percentage growth inhibition, OVCAR-3 (Ovarian HPV− Mut p53) (OVCAR-3; [5]): 28%

Compound: CC1=C(/C=C/C(C)=C/C=C/C(C)=C/C(=O)Nc2ccc(O)cc2)C(C)(C)CCC1 [4-HPR, 4-hydroxyphenylretinamide, reference compound]
Percentage of induction of apoptosis in SW962 vulvar carcinoma cultures ([2]; Days 0): 3%
Percentage of induction of apoptosis in SW962 vulvar carcinoma cultures ([2]; Days 1): 1.67%
Percentage of induction of apoptosis in SW962 vulvar carcinoma cultures ([2]; Days 2): 3.6%
Percentage of induction of apoptosis in SW962 vulvar carcinoma cultures ([2]; Days 3): 17.28%
% APOPTOSIS of OVCAR-3 cells [1]: 95%
Percentage of growth inhibition, SKOV−3 (SK-OV-3; [6]): 7.2%
Percentage of growth inhibition, SKOV−3 (SK-OV-3; [7]): 64.9%
liver toxicity (ALT activities, liver sections assessed by pathologist) ([3]; mice): do not appear to induce significant liver toxicity
ALT ACTIVITY ([3]; plasma of mice at end of treatment period): 149.7 ± 140.9 μm/Liter/Min
chemosensitization to cisplatin (percent growth, FIG. 2) [4]: but not 4-HPR are effective
chemosensitization to cisplatin (cell survival, MTS) ([4]; 5 μM retinoid, three days, then range of cisplatin concentrations): prevented the growth increase
Percentage of growth inhibition, OVCAR−3 (OVCAR-3; [6]): 2.7%
Percentage of growth inhibition, OVCAR−3 (OVCAR-3; [7]): 43.1%

Compound: Cc1cc([N+](=O)[O-])ccc1NC(=S)Nc1ccc2c(c1)C(C)(C)CC(C)(C)S2 [heteroarotinoid 16]
Percentage of growth inhibition, CAOV−3 (CAOV-3; [6]): 15.33%
Percentage of growth inhibition, CAOV−3 (CAOV-3; [7]): 83.22%
Percentage of growth inhibition, SKOV−3 (SK-OV-3; [6]): −1.67%
Percentage of growth inhibition, SKOV−3 (SK-OV-3; [7]): 52.81%
chemosensitization to cisplatin (percent growth, FIG. 2) [4]: effective
Percentage of growth inhibition, OVCAR−3 (OVCAR-3; [6]): 10.20%
Percentage of growth inhibition, OVCAR−3 (OVCAR-3; [7]): 74.05%

Compound: CCOC(=O)c1ccc(NC(=O)Nc2cccc3c2SC(C)(C)CC3(C)C)cc1 [heteroarotinoid 24]
Percentage of growth inhibition, CAOV−3 (CAOV-3; [6]): 17.55%
Percentage of growth inhibition, CAOV−3 (CAOV-3; [7]): 53.11%
Percentage of growth inhibition, SKOV−3 (SK-OV-3; [6]): 1.86%
Percentage of growth inhibition, SKOV−3 (SK-OV-3; [7]): 7.98%
chemosensitization to cisplatin (percent growth, FIG. 2) [4]: effective
Percentage of growth inhibition, OVCAR−3 (OVCAR-3; [6]): −2.16%
Percentage of growth inhibition, OVCAR−3 (OVCAR-3; [7]): 26.53%

melting point: 178 to 179 °C
Compound: COc1cc2c(cc1NC(=S)Nc1ccc([N+](=O)[O-])cc1)C(C)(C)OCC2(C)C [heteroarotinoid 31, [(6-Methoxy-1,1,4,4-tetramethylisochroman-7-yl)amino][(4-nitrophenyl)amino]methane 1-Thione]
inhibition at 1 µM (CAOV-3; Homo sapiens, Caov-3, 72 h, 1 μM, 3 days of treatment, Table II, read-out: Percentage of growth inhibition, CAOV−3): 6.88%
inhibition at 10 µM (CAOV-3; Homo sapiens, Caov-3, 72 h, 10 μM, 3 days of treatment, Table III, read-out: Percentage of growth inhibition, CAOV−3): 30.8%
inhibition at 1 µM (SK-OV-3; Homo sapiens, SK-OV-3, 72 h, 1 μM, 3 days of treatment, Table II, read-out: Percentage of growth inhibition, SKOV−3): -1.42%
inhibition at 10 µM (SK-OV-3; Homo sapiens, SK-OV-3, 72 h, 10 μM, 3 days of treatment, Table III, read-out: Percentage of growth inhibition, SKOV−3): 27.4%
Percentage of growth inhibition, OVCAR−3 (OVCAR-3; [6]): 3.88%
inhibition at 1 µM (OVCAR-3; Homo sapiens, OVCAR-3, 72 h, 1 μM, 3 days of treatment, Table II, read-out: Percentage of growth inhibition, OVCAR−3): 3.83%
inhibition at 10 µM (OVCAR-3; Homo sapiens, OVCAR-3, 72 h, 10 μM, 3 days of treatment, Table III, read-out: Percentage of growth inhibition, OVCAR−3): 80.6%
